These results are taken from ChEMBL document CHEMBL3875174, “Further investigation of Paprotrain: Towards the conception of selective and multi-targeted CNS kinase inhibitors” (Eur J Med Chem, 2016).

Data set [1] deals with Dual specificity protein kinase CLK3 (Homo sapiens, UniProt P49761). The data set is described as follows: Inhibition of GST-tagged human recombinant CLK3 expressed in Escherichia coli using RS peptide as substrate incubated for 30 mins in presence of [gamma-33 P] ATP by liquid scintillation counting analysis.
Chain of Dual specificity protein kinase CLK3 (P49761 whole entry): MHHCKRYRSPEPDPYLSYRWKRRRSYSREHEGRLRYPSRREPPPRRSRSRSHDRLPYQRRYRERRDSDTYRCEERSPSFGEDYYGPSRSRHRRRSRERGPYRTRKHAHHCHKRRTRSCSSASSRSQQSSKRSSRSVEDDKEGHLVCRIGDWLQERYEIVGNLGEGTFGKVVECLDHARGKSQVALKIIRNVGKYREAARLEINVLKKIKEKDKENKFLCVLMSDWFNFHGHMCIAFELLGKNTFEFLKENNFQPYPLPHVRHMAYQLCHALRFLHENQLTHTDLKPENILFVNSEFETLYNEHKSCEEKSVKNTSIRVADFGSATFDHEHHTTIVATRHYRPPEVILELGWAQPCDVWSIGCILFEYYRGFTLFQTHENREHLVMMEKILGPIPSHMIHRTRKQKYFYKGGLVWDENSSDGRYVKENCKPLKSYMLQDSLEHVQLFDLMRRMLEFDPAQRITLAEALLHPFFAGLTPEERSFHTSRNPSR
In data set [2] the target is Dual specificity tyrosine-phosphorylation-regulated kinase 1A (Homo sapiens, UniProt Q13627). The data set is described as follows: Inhibition of GST-tagged human recombinant DYRK1A expressed in Escherichia coli using RS peptide as substrate incubated for 30 mins in presence of [gamma-33 P] ATP by liquid scintillation counting analysis.
A short description of data set [3]: Cytotoxicity against human KB cells assessed as growth inhibition at 1 uM after 72 hrs by MTS assay. Format: toxicity, cell-based. Particulars: for inhibition at 72 h, 1 µM: KB cells, read-out: GI; for growth inhibition (GI): kb, 72 h, 1 µM. A general note: Tetrazolium dyes change colour on reduction, which living cells bring about.
Data set [4] is described as follows: Inhibition of porcine brain CK1 delta/epsilon using RRKHAAIGpSAYSITA as substrate incubated for 30 mins in presence of [gamma-33 P] ATP by liquid scintillation counting analysis. The arrangement: species or system Sus scrofa.
Data set [5] has as its target Dual specificity protein kinase CLK2 (Homo sapiens, UniProt P49760). The data set is described as follows: Inhibition of GST-tagged human recombinant CLK2 expressed in Escherichia coli using RS peptide as substrate incubated for 30 mins in presence of [gamma-33 P] ATP by liquid scintillation counting analysis.
Data set [6] deals with Glycogen synthase kinase-3 (Sus scrofa, UniProt B2LUN4+I6LNT8). The data set is described as follows: Inhibition of porcine brain GSK3alpha/beta using GS-1 as substrate incubated for 30 mins in presence of [gamma-33 P] ATP by liquid scintillation counting analysis.
Data set [7] concerns the target Dual specificity protein kinase CLK1 (Homo sapiens, UniProt P49759). The data set is described as follows: Inhibition of GST-tagged human recombinant CLK1 expressed in Escherichia coli using RS peptide as substrate incubated for 30 mins in presence of [gamma-33 P] ATP by liquid scintillation counting analysis.
The target in data set [8] is Cyclin-dependent kinase 5/CDK5 activator 1 (Homo sapiens, UniProt Q00535). Format: protein-complex assay.
Chain of Cyclin-dependent kinase 5/CDK5 activator 1 (Q00535 whole entry): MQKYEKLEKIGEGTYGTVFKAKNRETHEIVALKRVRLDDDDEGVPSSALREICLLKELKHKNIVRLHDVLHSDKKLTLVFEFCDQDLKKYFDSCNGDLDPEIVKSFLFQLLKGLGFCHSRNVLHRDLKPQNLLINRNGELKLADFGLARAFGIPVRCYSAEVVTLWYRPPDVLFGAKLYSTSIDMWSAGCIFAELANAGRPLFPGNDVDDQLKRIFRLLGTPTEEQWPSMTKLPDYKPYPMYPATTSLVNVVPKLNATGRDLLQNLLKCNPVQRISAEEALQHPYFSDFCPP
Chain of Cyclin-dependent kinase 5/CDK5 activator 1 (Q15078 whole entry, further chain): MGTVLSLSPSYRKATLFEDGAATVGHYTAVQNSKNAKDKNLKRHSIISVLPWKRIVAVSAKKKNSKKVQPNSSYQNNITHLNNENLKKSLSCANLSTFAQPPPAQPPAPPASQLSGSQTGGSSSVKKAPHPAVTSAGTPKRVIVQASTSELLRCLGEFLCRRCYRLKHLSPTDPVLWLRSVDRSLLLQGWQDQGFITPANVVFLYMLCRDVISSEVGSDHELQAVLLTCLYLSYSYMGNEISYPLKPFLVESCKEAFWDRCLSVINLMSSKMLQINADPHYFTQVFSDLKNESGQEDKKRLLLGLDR
Data set [9] concerns the target Dual specificity protein kinase CLK4 (Homo sapiens, UniProt Q9HAZ1). The data set is described as follows: Inhibition of GST-tagged human recombinant CLK4 expressed in Escherichia coli using RS peptide as substrate incubated for 30 mins in presence of [gamma-33 P] ATP by liquid scintillation counting analysis.
Data set [10] concerns the target Dual specificity tyrosine-phosphorylation-regulated kinase 1B (Homo sapiens, UniProt Q9Y463). The data set is described as follows: Inhibition of GST-tagged human recombinant DYRK1B expressed in Escherichia coli using RS peptide as substrate incubated for 30 mins in presence of [gamma-33 P] ATP by liquid scintillation counting analysis.

Chain of Dual specificity protein kinase CLK4 (Q9HAZ1 whole entry): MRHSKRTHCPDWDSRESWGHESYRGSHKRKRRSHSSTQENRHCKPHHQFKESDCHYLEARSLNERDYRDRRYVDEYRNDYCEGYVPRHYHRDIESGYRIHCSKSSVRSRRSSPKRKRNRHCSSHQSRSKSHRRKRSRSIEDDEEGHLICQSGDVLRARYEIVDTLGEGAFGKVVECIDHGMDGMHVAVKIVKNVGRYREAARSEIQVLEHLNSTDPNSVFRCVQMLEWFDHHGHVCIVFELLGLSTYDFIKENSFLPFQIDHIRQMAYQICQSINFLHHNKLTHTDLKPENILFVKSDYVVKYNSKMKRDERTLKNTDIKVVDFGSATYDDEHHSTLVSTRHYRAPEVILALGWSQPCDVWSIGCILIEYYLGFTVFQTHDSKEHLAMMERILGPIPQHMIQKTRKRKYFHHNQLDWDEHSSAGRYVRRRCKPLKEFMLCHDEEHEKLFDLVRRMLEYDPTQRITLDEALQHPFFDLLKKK
Chain of Dual specificity protein kinase CLK1 (P49759 whole entry): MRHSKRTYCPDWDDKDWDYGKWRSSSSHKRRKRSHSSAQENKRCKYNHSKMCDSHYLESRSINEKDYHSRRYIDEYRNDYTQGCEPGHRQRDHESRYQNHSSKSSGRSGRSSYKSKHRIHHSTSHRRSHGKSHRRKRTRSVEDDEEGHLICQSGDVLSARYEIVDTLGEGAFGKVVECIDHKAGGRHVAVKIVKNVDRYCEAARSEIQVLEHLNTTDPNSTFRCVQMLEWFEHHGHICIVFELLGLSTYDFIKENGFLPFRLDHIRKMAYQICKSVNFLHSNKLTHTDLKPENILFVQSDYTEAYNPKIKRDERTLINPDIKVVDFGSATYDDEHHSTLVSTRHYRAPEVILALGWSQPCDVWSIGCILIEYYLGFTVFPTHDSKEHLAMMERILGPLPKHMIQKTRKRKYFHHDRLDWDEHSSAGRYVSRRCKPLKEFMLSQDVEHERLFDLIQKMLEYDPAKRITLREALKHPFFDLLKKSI
Chain of Dual specificity tyrosine-phosphorylation-regulated kinase 1B (Q9Y463 whole entry): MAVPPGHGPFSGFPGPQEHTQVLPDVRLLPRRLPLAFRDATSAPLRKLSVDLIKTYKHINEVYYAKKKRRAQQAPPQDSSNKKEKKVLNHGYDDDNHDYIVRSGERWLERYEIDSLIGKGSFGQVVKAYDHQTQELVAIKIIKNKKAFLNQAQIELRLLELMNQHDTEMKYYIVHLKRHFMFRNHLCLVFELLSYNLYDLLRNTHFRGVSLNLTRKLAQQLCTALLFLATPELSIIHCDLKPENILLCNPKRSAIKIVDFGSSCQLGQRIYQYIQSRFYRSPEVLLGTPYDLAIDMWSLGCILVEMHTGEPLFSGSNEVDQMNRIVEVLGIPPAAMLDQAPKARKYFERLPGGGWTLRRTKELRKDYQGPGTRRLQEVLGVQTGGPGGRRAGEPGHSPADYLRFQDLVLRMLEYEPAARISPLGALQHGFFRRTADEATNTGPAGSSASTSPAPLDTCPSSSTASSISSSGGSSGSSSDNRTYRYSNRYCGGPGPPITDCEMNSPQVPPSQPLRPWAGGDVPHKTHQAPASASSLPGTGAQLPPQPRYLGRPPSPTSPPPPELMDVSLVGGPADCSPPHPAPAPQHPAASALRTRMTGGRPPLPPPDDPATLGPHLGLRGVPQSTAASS
Chain of Dual specificity protein kinase CLK2 (P49760 whole entry): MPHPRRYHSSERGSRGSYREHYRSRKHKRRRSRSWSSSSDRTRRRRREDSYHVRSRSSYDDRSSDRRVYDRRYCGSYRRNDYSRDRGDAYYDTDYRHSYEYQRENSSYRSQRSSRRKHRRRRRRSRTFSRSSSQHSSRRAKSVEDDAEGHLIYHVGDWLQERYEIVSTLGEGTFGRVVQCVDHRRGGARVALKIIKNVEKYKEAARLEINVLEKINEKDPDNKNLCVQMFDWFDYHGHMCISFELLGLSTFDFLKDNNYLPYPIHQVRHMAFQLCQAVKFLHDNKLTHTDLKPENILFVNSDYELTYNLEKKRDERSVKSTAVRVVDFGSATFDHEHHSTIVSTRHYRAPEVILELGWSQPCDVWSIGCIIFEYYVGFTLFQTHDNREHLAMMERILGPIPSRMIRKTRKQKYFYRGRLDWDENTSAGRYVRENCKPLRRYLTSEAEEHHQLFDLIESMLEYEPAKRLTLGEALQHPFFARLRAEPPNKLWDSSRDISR

Turning to `N#Cc1cc2ccncc2c2[nH]c3ccccc3c12`, the IC50 in data set [1] was 1.8 µM; in data set [2], 0.37 µM; in data set [4] it was above 10 µM; in data set [5], 1.1 µM; in data set [6], 2.4 µM; in [7], 0.17 µM. In addition, the IC50 in data set [8] was 6 µM; in [9] it was 0.18 µM; in [10], 0.26 µM. For the same compound, in [3], the inhibition at 72 h, 1 µM turned out to be 3%.
For the compound `COc1ccc2c(/C(C#N)=C/c3cccnc3)c[nH]c2n1`, the IC50 in data set [1] was above 10 µM; in data set [2], 0.18 µM; in data set [4], above 10 µM; in data set [5], 2.3 µM; in [6], above 10 µM; in data set [7], 0.23 µM. In addition, the IC50 in data set [8] was above 10 µM; in data set [9], 0.071 µM; in data set [10], 0.1 µM. Further, the “growth inhibition (GI)” value in data set [3] is given as “Non-Toxic”.
On to `COc1ccc2c(c1)[nH]c1c3c(OC)cncc3cc(C#N)c21`, for which the IC50 in data set [1] is 0.32 µM; in data set [2] it was 0.018 µM; in data set [4], above 10 µM; in data set [5], 0.15 µM; in [6], 0.14 µM; in data set [7], 0.023 µM. In addition, the IC50 in data set [8] stood at 6.4 µM; in [9], 0.03 µM; in [10] it was 0.042 µM. Moreover, the inhibition at 72 h, 1 µM in [3] was determined as 38%.
With `COc1ccc2[nH]c3c(=O)[nH]c(-c4cccnc4)c(C#N)c3c2c1`, the IC50 in [1] was above 10 µM; in [2] it was 4.3 µM; in data set [4], above 10 µM; in [5], 0.61 µM; in [6] it was above 10 µM; in data set [7], 0.047 µM. In addition, the figures for the IC50 in data set [8], in data set [9] and in data set [10] were above 10 µM, 0.021 µM and 1.1 µM, respectively. Moreover, the “growth inhibition (GI)” value in data set [3] is listed as “Non-Toxic”.
`COc1ccc2c(c1)[nH]c1c3ccncc3cc(CN)c21`: the IC50 in data set [1] is 7 µM; in data set [2] it was 0.87 µM; in [4] it was above 10 µM; in data set [5] it was 1.6 µM; in data set [6], above 10 µM; in [7], 0.83 µM. Also, the IC50 was 5.6 µM in data set [8], 0.27 µM in [9] and 0.91 µM in data set [10]. Besides, the inhibition at 72 h, 1 µM in data set [3] was 85%.
In the case of `COc1cccc2c1[nH]c1c3ccncc3cc(C#N)c21`, the IC50 was 0.18 µM in data set [1]; 0.027 µM in data set [2]; above 10 µM in [4]; 0.044 µM in data set [5]; 2 µM in [6]; 0.041 µM in data set [7]. The IC50 was 0.46 µM in [8], 0.04 µM in data set [9] and 0.028 µM in data set [10]. Moreover, the inhibition at 72 h, 1 µM in data set [3] worked out at 9%.
`COc1ccc2c(n1)[nH]c1c3ccncc3cc(C#N)c21`: the 50% inhibitory concentration (IC50) in data set [1] is above 10 µM; in data set [2], 0.2 µM; in data set [4] it was above 10 µM; in data set [5], 4.6 µM; in [6], above 10 µM; in data set [7] it was 0.086 µM. Moreover, the IC50 in data set [8] was above 10 µM; in data set [9] it was 0.047 µM; in data set [10], 0.093 µM. For the same compound, the “growth inhibition (GI)” value in [3] was “Non-Toxic”.
For `COc1ccc2c(-c3ccncc3)c[nH]c2n1`, the IC50 in data set [1] is 6.1 µM; in [2], 5.8 µM; in data set [4], above 10 µM; in [5] it was 3.5 µM; in data set [6] it was above 10 µM; in [7], 0.43 µM. Also, the results for the IC50 in data set [8], in [9] and in data set [10] were 7 µM, 0.11 µM and 0.22 µM, respectively. Further, the “growth inhibition (GI)” value in data set [3] is “Non-Toxic”.
On to `COc1cccc2c1[nH]c1c3ccncc3cc(C(N)=O)c21`, for which the IC50 is 6.1 µM in data set [1]; 0.6 µM in data set [2]; above 10 µM in [4]; 3.5 µM in data set [5]; 8.8 µM in data set [6]; 0.57 µM in data set [7]. In addition, the half-maximal inhibitory concentration (IC50) stood at 9 µM in data set [8], 0.11 µM in data set [9] and 0.46 µM in data set [10]. Besides, the “growth inhibition (GI)” value in [3] is given as “Non-Toxic”.
Regarding `COc1ccc2[nH]c3c4ccncc4cc(C#N)c3c2c1`, the IC50 in [1] was 0.71 µM; in [2], 0.37 µM; in data set [4], above 10 µM; in data set [5], 0.11 µM; in data set [6] it was 1.7 µM; in [7] it was 0.051 µM. The 50% inhibitory concentration (IC50) in data set [8] amounted to 0.8 µM; in data set [9], 0.057 µM; in [10], 0.22 µM. Besides, in data set [3], the “growth inhibition (GI)” value is “Non-Toxic”.
Consider `N#C/C(=C\c1cccnc1)c1c[nH]c2ncccc12`, for which the 50% inhibitory concentration (IC50) in data set [1] is above 10 µM; in [2] it was 0.021 µM; in data set [4] it was above 10 µM; in [5], 4.6 µM; in data set [6], 0.72 µM; in [7], 0.016 µM. Further, the IC50 in [8] amounted to 0.13 µM; in data set [9], 0.047 µM; in data set [10] it was 0.24 µM. Also, in [3], the inhibition at 72 h, 1 µM was determined as 29%.
Take `COc1cccc2[nH]c3c4ccncc4cc(C#N)c3c12`: the IC50 was above 10 µM in [1]; 0.85 µM in data set [2]; above 10 µM in data set [4]; 4 µM in [5]; above 10 µM in [6]; 0.62 µM in data set [7]. Also, the IC50 in data set [8] was above 10 µM; in data set [9], 0.1 µM; in data set [10], above 10 µM. The inhibition at 72 h, 1 µM in data set [3] turned out to be 13%.
Consider `COc1ccc2[nH]cc(-c3cc4cnccc4cc3NC(C)=O)c2c1`, for which the 50% inhibitory concentration (IC50) was 7 µM in data set [1]; 0.85 µM in data set [2]; above 10 µM in data set [4]; 1.1 µM in data set [5]; above 10 µM in data set [6]; 0.034 µM in [7]. The results for the IC50 in data set [8], in data set [9] and in data set [10] were 8 µM, 0.022 µM and 0.59 µM, respectively. Moreover, the “growth inhibition (GI)” value in [3] was “Non-Toxic”.
Turning to `N#Cc1cc2cnccc2c2[nH]c3ccc(F)cc3c12`, the IC50 is above 10 µM in data set [1]; 0.31 µM in [2]; above 10 µM in data set [4]; 0.61 µM in data set [5]; above 10 µM in data set [6]; 0.23 µM in [7]. The values for the IC50 in data set [8], in [9] and in [10] were above 10 µM, 0.2 µM and 0.3 µM, respectively. The “growth inhibition (GI)” value in data set [3] is recorded as “Non-Toxic”.
For the compound `COc1ccc2c(c1)[nH]c1c3ccncc3cc(CNC(C)=O)c21`, the IC50 is 8 µM in data set [1]; 0.97 µM in data set [2]; above 10 µM in data set [4]; 2.8 µM in data set [5]; above 10 µM in [6]; 2.4 µM in data set [7]. Besides, the figures for the IC50 in [8], in data set [9] and in [10] were 6 µM, 0.69 µM and 0.9 µM, respectively. In addition, the inhibition at 72 h, 1 µM in data set [3] came out at 16%.
Turning to `N#Cc1cc2cnccc2c2[nH]c3ncccc3c12`, the IC50 in data set [1] is 6.8 µM; in data set [2], 0.44 µM; in [4] it was above 10 µM; in [5], 0.4 µM; in [6] it was 1.8 µM; in data set [7], 0.16 µM. Besides, the IC50 is 0.78 µM in [8], 0.13 µM in data set [9] and 0.16 µM in data set [10]. For the same compound, in data set [3], the “growth inhibition (GI)” value was “Non-Toxic”.
As for `COc1ccc2c(c1)[nH]c1c3ccncc3cc(C#N)c21`, the IC50 is 0.19 µM in data set [1]; 0.025 µM in [2]; above 10 µM in data set [4]; 0.08 µM in data set [5]; 0.68 µM in data set [6]; 0.023 µM in data set [7]. Moreover, the results for the half-maximal inhibitory concentration (IC50) in data set [8], in data set [9] and in [10] were 0.44 µM, 0.033 µM and 0.034 µM, respectively. Moreover, the inhibition at 72 h, 1 µM in data set [3] was found to be 64%.

As usually defined, the IC50 is the concentration that inhibits the measured activity by half.
